Among the data in ChEMBL document CHEMBL6078668, “Synthesis and biological evaluation of lappaconitine analogues as potential anti-neuroinflammatory agents by side chain modification and scaffold hopping strategy” (Bioorg Med Chem, 2025) are inhibition and viability values, retold here.

One data set deals with BV-2. The data set is described as follows: Anti-neuroinflammatory activity against LPS-stimulated C57BL/6 mouse BV-2 cells assessed as inhibition of NO release at 30 uM preincubated with compound for 4 hrs followed by LPS addition and measured after 24 hrs by Griess reagent based assay relative to control. The data set is classed as functional. To be noted: C57BL/6, BV-2, time 28 hrs.

Data set [1] is described as follows: Cytotoxicity against C57BL/6 mouse BV-2 cells assessed as survival rate at 30 uM incubated for 24 hrs by MTT assay relative to control. To be noted: read-out: Survival. The data set is classed as toxicity, cell-based.

As to `CCN1C[C@]2(OC(=O)c3ccccc3NC(=O)c3cccc(OC)c3)CC[C@H](OC)[C@]34C1[C@@H](C[C@H]23)[C@@]1(O)C[C@H](OC)[C@H]2C[C@@H]4[C@]1(O)[C@H]2OC`, in the data set with BV-2, the inhibition at 30 µM was determined as 44.9%. Moreover, the viability at 24 h, 30 µM in data set [1] came out at 107%.

In the case of `CCN1C[C@]2(OC(=O)c3ccccc3NC(=O)S(=O)(=O)c3cncc(Br)c3)CC[C@H](OC)[C@]34C1[C@@H](C[C@H]23)[C@@]1(O)C[C@H](OC)[C@H]2C[C@@H]4[C@]1(O)[C@H]2OC`, the inhibition at 30 µM in the data set on BV-2 amounted to 20.3%. The viability at 24 h, 30 µM in data set [1] turned out to be 91.5%.

Take `CCN1C[C@]2(OC(=O)c3ccccc3NC(=O)S(=O)(=O)c3ccc4c(c3)CCC4)CC[C@H](OC)[C@]34C1[C@@H](C[C@H]23)[C@@]1(O)C[C@H](OC)[C@H]2C[C@@H]4[C@]1(O)[C@H]2OC`: the inhibition at 30 µM with BV-2 is 18.1%. Moreover, in data set [1], the viability at 24 h, 30 µM stood at 94.4%.

Consider `CCN1C[C@]2(OC(=O)c3ccccc3NC(=O)c3ccc(Cl)cc3)CC[C@H](OC)[C@]34C1[C@@H](C[C@H]23)[C@@]1(O)C[C@H](OC)[C@H]2C[C@@H]4[C@]1(O)[C@H]2OC`, for which, in the data set on BV-2, the inhibition at 30 µM came out at 32.3%. Also, the viability at 24 h, 30 µM in data set [1] was determined as 105%.

In the case of `CCN1C[C@]2(OC(=O)c3ccccc3NC(=O)c3ccccc3Cl)CC[C@H](OC)[C@]34C1[C@@H](C[C@H]23)[C@@]1(O)C[C@H](OC)[C@H]2C[C@@H]4[C@]1(O)[C@H]2OC`, the inhibition at 30 µM in the data set with BV-2 was 12.8%. Besides, the viability at 24 h, 30 µM in data set [1] was found to be 104%.

On to `CCN1C[C@]2(OC(=O)c3ccccc3NC(=O)S(=O)(=O)c3cccc(Cl)c3)CC[C@H](OC)[C@]34C1[C@@H](C[C@H]23)[C@@]1(O)C[C@H](OC)[C@H]2C[C@@H]4[C@]1(O)[C@H]2OC`, for which, in the data set with BV-2, the inhibition at 30 µM was 13.9%. The viability at 24 h, 30 µM in data set [1] was 95.4%.

With `CCN1C[C@]2(OC(=O)c3ccccc3NC(C)=O)CC[C@H](OC)[C@]34C1[C@@H](C[C@H]23)[C@@]1(O)C[C@H](OC)[C@H]2C[C@@H]4[C@]1(O)[C@H]2OC`, the inhibition at 30 µM with BV-2 turned out to be 25.1%. Moreover, the viability at 24 h, 30 µM in data set [1] was found to be 98.2%.

For the compound `CCN1C[C@]2(OC(=O)c3ccccc3NC(=O)S(=O)(=O)CCCCl)CC[C@H](OC)[C@]34C1[C@@H](C[C@H]23)[C@@]1(O)C[C@H](OC)[C@H]2C[C@@H]4[C@]1(O)[C@H]2OC`, in the data set on BV-2, the inhibition at 30 µM came to 23.5%. The viability at 24 h, 30 µM in data set [1] is 104%.

As to `CCN1C[C@]2(OC(=O)c3ccccc3NC(=O)c3ccccc3I)CC[C@H](OC)[C@]34C1[C@@H](C[C@H]23)[C@@]1(O)C[C@H](OC)[C@H]2C[C@@H]4[C@]1(O)[C@H]2OC`, the inhibition at 30 µM in the data set on BV-2 worked out at 13.1%. In data set [1], the viability at 24 h, 30 µM is 109%.

Turning to `CCN1C[C@]2(OC(=O)c3ccccc3NC(=O)S(=O)(=O)c3cc(Br)c(Cl)s3)CC[C@H](OC)[C@]34C1[C@@H](C[C@H]23)[C@@]1(O)C[C@H](OC)[C@H]2C[C@@H]4[C@]1(O)[C@H]2OC`, the inhibition at 30 µM in the data set on BV-2 was found to be 29.4%. Besides, the viability at 24 h, 30 µM in data set [1] is 94.3%.

Turning to `CCN1C[C@]2(OC(=O)c3ccccc3NC(=O)C3CCCCC3)CC[C@H](OC)[C@]34C1[C@@H](C[C@H]23)[C@@]1(O)C[C@H](OC)[C@H]2C[C@@H]4[C@]1(O)[C@H]2OC`, the inhibition at 30 µM in the data set with BV-2 worked out at 44.5%. The viability at 24 h, 30 µM in data set [1] was 105%.

`CCN1C[C@]2(OC(=O)c3ccccc3NC(=O)S(=O)(=O)c3ccc(C)cc3)CC[C@H](OC)[C@]34C1[C@@H](C[C@H]23)[C@@]1(O)C[C@H](OC)[C@H]2C[C@@H]4[C@]1(O)[C@H]2OC`: the inhibition at 30 µM in the data set with BV-2 turned out to be 31.7%. In data set [1], the viability at 24 h, 30 µM was found to be 102%.

As to `CCN1C[C@]2(OC(=O)c3ccccc3NC(=O)S(=O)(=O)c3cccc([N+](=O)[O-])c3)CC[C@H](OC)[C@]34C1[C@@H](C[C@H]23)[C@@]1(O)C[C@H](OC)[C@H]2C[C@@H]4[C@]1(O)[C@H]2OC`, the inhibition at 30 µM in the data set on BV-2 worked out at 11.7%. For the same compound, the viability at 24 h, 30 µM in data set [1] was found to be 106%.

Regarding `CCN1C[C@]2(OC(=O)c3ccccc3NC(=O)S(=O)(=O)c3ccc(C)c(Cl)c3)CC[C@H](OC)[C@]34C1[C@@H](C[C@H]23)[C@@]1(O)C[C@H](OC)[C@H]2C[C@@H]4[C@]1(O)[C@H]2OC`, the inhibition at 30 µM with BV-2 turned out to be 25.2%. Moreover, the viability at 24 h, 30 µM in data set [1] worked out at 94.8%.

`CCN1C[C@]2(OC(=O)c3ccccc3NC(=O)S(=O)(=O)c3ccccn3)CC[C@H](OC)[C@]34C1[C@@H](C[C@H]23)[C@@]1(O)C[C@H](OC)[C@H]2C[C@@H]4[C@]1(O)[C@H]2OC`: the inhibition at 30 µM in the data set with BV-2 amounted to 29.9%. Moreover, in data set [1], the viability at 24 h, 30 µM was determined as 100%.

`CCN1C[C@]2(OC(=O)c3ccccc3NC(=O)S(=O)(=O)c3cccc(C)c3)CC[C@H](OC)[C@]34C1[C@@H](C[C@H]23)[C@@]1(O)C[C@H](OC)[C@H]2C[C@@H]4[C@]1(O)[C@H]2OC`: in the data set on BV-2, the inhibition at 30 µM came out at 46.5%. For the same compound, the viability at 24 h, 30 µM in data set [1] worked out at 106%.

`CCN1C[C@]2(OC(=O)c3ccccc3NC(=O)c3ccccc3OC)CC[C@H](OC)[C@]34C1[C@@H](C[C@H]23)[C@@]1(O)C[C@H](OC)[C@H]2C[C@@H]4[C@]1(O)[C@H]2OC`: the inhibition at 30 µM in the data set with BV-2 came to 34.2%. Besides, the viability at 24 h, 30 µM in data set [1] came to 97%.

As to `CCN1C[C@]2(OC(=O)c3ccccc3NC(=O)c3cccc(Cl)c3)CC[C@H](OC)[C@]34C1[C@@H](C[C@H]23)[C@@]1(O)C[C@H](OC)[C@H]2C[C@@H]4[C@]1(O)[C@H]2OC`, in the data set with BV-2, the inhibition at 30 µM came to 12.9%. For the same compound, the viability at 24 h, 30 µM in data set [1] worked out at 104%.

With `CCN1C[C@]2(OC(=O)c3ccccc3NC(=O)S(=O)(=O)c3ccccc3Cl)CC[C@H](OC)[C@]34C1[C@@H](C[C@H]23)[C@@]1(O)C[C@H](OC)[C@H]2C[C@@H]4[C@]1(O)[C@H]2OC`, in the data set with BV-2, the inhibition at 30 µM was determined as 7.8%. In addition, the viability at 24 h, 30 µM in data set [1] was 100%.

For the compound `CCc1ccc(C(=O)Nc2ccccc2C(=O)OC[C@@]23CC[C@H](OC)[C@]45C([C@@H](C[C@H]24)[C@@]2(O)C[C@H](OC)[C@H]4C[C@@H]5[C@]2(O)[C@H]4O)N(CC)C3)cc1`, in the data set on BV-2, the inhibition at 30 µM was 15.5%. Also, in data set [1], the viability at 24 h, 30 µM was 104%.

Take `CCN1C[C@]2(OC(=O)c3ccccc3NC(=O)S(=O)(=O)c3ccc(F)cc3F)CC[C@H](OC)[C@]34C1[C@@H](C[C@H]23)[C@@]1(O)C[C@H](OC)[C@H]2C[C@@H]4[C@]1(O)[C@H]2OC`: in the data set on BV-2, the inhibition at 30 µM amounted to 47.5%. Also, the viability at 24 h, 30 µM in data set [1] stood at 103%.

As to `CCN1C[C@]2(OC(=O)c3ccccc3NC(=O)c3ccccc3F)CC[C@H](OC)[C@]34C1[C@@H](C[C@H]23)[C@@]1(O)C[C@H](OC)[C@H]2C[C@@H]4[C@]1(O)[C@H]2OC`, the inhibition at 30 µM with BV-2 turned out to be 17.3%. For the same compound, the viability at 24 h, 30 µM in data set [1] worked out at 105%.

As for `CCN1C[C@]2(OC(=O)c3ccccc3NC(=O)c3ccccc3)CC[C@H](OC)[C@]34C1[C@@H](C[C@H]23)[C@@]1(O)C[C@H](OC)[C@H]2C[C@@H]4[C@]1(O)[C@H]2OC`, in the data set with BV-2, the inhibition at 30 µM was found to be 36%. Also, the viability at 24 h, 30 µM in data set [1] was found to be 107%.

As for `CCN1C[C@]2(OC(=O)c3ccccc3NC(=O)S(=O)(=O)c3ccccc3)CC[C@H](OC)[C@]34C1[C@@H](C[C@H]23)[C@@]1(O)C[C@H](OC)[C@H]2C[C@@H]4[C@]1(O)[C@H]2OC`, in the data set on BV-2, the inhibition at 30 µM is 31.8%. The viability at 24 h, 30 µM in data set [1] was determined as 97.2%.

In the case of `CCN1C[C@]2(OC(=O)c3ccccc3NC(=O)S(=O)(=O)c3cc(F)c(F)cc3F)CC[C@H](OC)[C@]34C1[C@@H](C[C@H]23)[C@@]1(O)C[C@H](OC)[C@H]2C[C@@H]4[C@]1(O)[C@H]2OC`, in the data set with BV-2, the inhibition at 30 µM turned out to be 10.5%. In data set [1], the viability at 24 h, 30 µM stood at 108%.

For the compound `CCCCOC(=O)c1ccccc1NS(=O)(=O)c1cccc(F)c1`, the inhibition at 30 µM in the data set with BV-2 is 50.9%. Further, in data set [1], the viability at 24 h, 30 µM came to 106%.

As for `CCN1C[C@]2(OC(=O)c3ccccc3NC(=O)S(=O)(=O)c3ccc(C)cc3F)CC[C@H](OC)[C@]34C1[C@@H](C[C@H]23)[C@@]1(O)C[C@H](OC)[C@H]2C[C@@H]4[C@]1(O)[C@H]2OC`, the inhibition at 30 µM in the data set with BV-2 is 26.4%. For the same compound, in data set [1], the viability at 24 h, 30 µM came to 106%.

`CCN1C[C@]2(OC(=O)c3ccccc3NC(=O)S(=O)(=O)c3ccccc3Br)CC[C@H](OC)[C@]34C1[C@@H](C[C@H]23)[C@@]1(O)C[C@H](OC)[C@H]2C[C@@H]4[C@]1(O)[C@H]2OC`: the inhibition at 30 µM with BV-2 came to 7.3%. Besides, the viability at 24 h, 30 µM in data set [1] was found to be 92.6%.

Take `CCN1C[C@]2(COC(=O)c3ccccc3NS(=O)(=O)c3ccc(Br)s3)CC[C@H](OC)[C@]34C1[C@@H](C[C@H]23)[C@@]1(O)C[C@H](OC)[C@H]2C[C@@H]4[C@]1(O)[C@H]2OC`: the inhibition at 30 µM with BV-2 was 34.7%. In addition, the viability at 24 h, 30 µM in data set [1] is 97.8%.

Take `O=C(O)c1ccccc1NS(=O)(=O)c1cccc(F)c1`: the inhibition at 30 µM with BV-2 was determined as 10.8%. Moreover, the viability at 24 h, 30 µM in data set [1] amounted to 100%.

For the compound `CCN1C[C@]2(OC(=O)c3ccccc3NC(=O)c3ccc(F)cc3)CC[C@H](OC)[C@]34C1[C@@H](C[C@H]23)[C@@]1(O)C[C@H](OC)[C@H]2C[C@@H]4[C@]1(O)[C@H]2OC`, the inhibition at 30 µM in the data set with BV-2 was determined as 22.3%. Moreover, the viability at 24 h, 30 µM in data set [1] came to 104%.

With `CCN1C[C@]2(OC(=O)c3ccccc3NC(=O)S(=O)(=O)c3cccs3)CC[C@H](OC)[C@]34C1[C@@H](C[C@H]23)[C@@]1(O)C[C@H](OC)[C@H]2C[C@@H]4[C@]1(O)[C@H]2OC`, the inhibition at 30 µM in the data set with BV-2 worked out at 55.9%. Moreover, the viability at 24 h, 30 µM in data set [1] amounted to 105%.

For `CCc1ccc(C(=O)Nc2ccccc2C(=O)OC)cc1`, the inhibition at 30 µM in the data set with BV-2 came to 37.1%. Besides, the viability at 24 h, 30 µM in data set [1] was 103%.

In the case of `CCN1C[C@]2(OC(=O)c3ccccc3NC(=O)S(=O)(=O)c3cc(F)ccc3F)CC[C@H](OC)[C@]34C1[C@@H](C[C@H]23)[C@@]1(O)C[C@H](OC)[C@H]2C[C@@H]4[C@]1(O)[C@H]2OC`, the inhibition at 30 µM in the data set on BV-2 turned out to be 53.7%. Also, the viability at 24 h, 30 µM in data set [1] was 105%.
